{"source": "patent US20250163104A1", "about": "“MACROCYCLIC IMMUNOMODULATORS” (priority 2021, published 2025)", "note": "Where a SMILES comes first, the peptide text is derived from it. Bridges are numbered along the chain shown (N, C = ends). [ ]: non-standard residue; d: D form. The star is where a group is joined. ξ: configuration not given here. Phe(4-COOH) = N[C@@H](Cc1ccc(C(=O)O)cc1)C(=O)O; Phe(4-CH2NH2) = NCc1ccc(C[C@H](N)C(=O)O)cc1; Bip = N[C@@H](Cc1ccc(-c2ccccc2)cc1)C(=O)O; Phe(3-Me) = Cc1cccc(C[C@H](N)C(=O)O)c1; 2Nal = N[C@@H](Cc1ccc2ccccc2c1)C(=O)O; Val(3-OH) = CC(C)(O)[C@H](N)C(=O)O; 3Pal = N[C@@H](Cc1cccnc1)C(=O)O; 4Pal = N[C@@H](Cc1ccncc1)C(=O)O; 3Thi = N[C@@H](Cc1ccsc1)C(=O)O; Cha = N[C@@H](CC1CCCCC1)C(=O)O; Cit = NC(=O)NCCC[C@H](N)C(=O)O; Ile(3ξ) = CCC(C)[C@H](N)C(=O)O; dCha = N[C@H](CC1CCCCC1)C(=O)O; Thr(3ξ) = CC(O)[C@H](N)C(=O)O; Tle = CC(C)(C)[C@H](N)C(=O)O; Carboxymethyl = O=C(O)C*; Nle = CCCC[C@H](N)C(=O)O; Orn = NCCC[C@H](N)C(=O)O; dDap = NC[C@@H](N)C(=O)O; Dab = NCC[C@H](N)C(=O)O; Dap = NC[C@H](N)C(=O)O; ξPra = C#CCC(N)C(=O)O", "data": [{"biological_target": "T1, human PD-1 / PD-L1-Ig binding on Jurkat cell line over-expressing human PD-1 (Jurkat-PD-1) (Homo sapiens, UniProt Q15116)", "T1 construct": "expressed in transfected cells; host or cells: Jurkat", "T1 sequence (Q15116 25-288)": "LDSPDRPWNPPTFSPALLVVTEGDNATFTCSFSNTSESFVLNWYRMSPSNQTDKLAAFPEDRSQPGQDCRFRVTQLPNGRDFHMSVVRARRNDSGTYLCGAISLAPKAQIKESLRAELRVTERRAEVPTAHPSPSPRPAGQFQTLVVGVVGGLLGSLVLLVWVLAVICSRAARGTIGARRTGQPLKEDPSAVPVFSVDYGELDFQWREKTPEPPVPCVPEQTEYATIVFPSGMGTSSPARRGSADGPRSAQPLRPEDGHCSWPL", "experiment": "Jurkat-PD-1 Cell Binding High-Content Screening Assay (CBA)", "type": "cell-based", "conditions": "Jurkat-PD-1 cells, PE-labeled PD-L1-Ig 20 nM final; read-out: Jurkat HPD1_PDL1 IC50", "in_short": "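Binding of fluorescent PD-L1-Ig (phycoerythrin linked via the Ig tag, 20 nM final) to PD-1-overexpressing Jurkat cells was imaged after a 2 h, 37° C compound pretreatment and 1 hour ligand incubation.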", "units": {"IC50": "nM"}, "values": [{"smiles": "CC(C)[C@@H]1NC(=O)[C@H](Cc2c[nH]c3ccccc23)NC(=O)[C@H](CC(=O)O)NC(=O)[C@H](Cc2ccc(C(=O)O)cc2)NC(=O)[C@H](Cc2ccc(OCC(=O)O)cc2)NC(=O)CSC[C@@H](C(=O)N[C@@H](C)C(N)=O)NC(=O)[C@H]([C@@H](C)O)NC(=O)[C@H](C(C)C)NC(=O)[C@H](CC2CCCCC2)NC(=O)[C@H](CCN)NC(=O)[C@@H](CC2CCCCC2)NC(=O)[C@H](CCCN)NC(=O)[C@H](CCC(=O)O)NC(=O)[C@H](Cc2ccc(-c3ccccc3)cc2)NC1=O", "note": "[Compound 1444] ({CH2CO}-Y(Carboxymethyl)[Phe(4-COOH)]DWV[Bip]E[Orn][dCha][Dab][Cha]VTCA-NH2; thioether N-14)", "IC50": 5.7}, {"smiles": "CC(C)C[C@H]1NC(=O)[C@H](CCCN)NC(=O)[C@H](CCCNC(N)=O)NC(=O)[C@H](Cc2ccc(-c3ccccc3)cc2)NC(=O)[C@H](C(C)C)NC(=O)[C@H](Cc2c[nH]c3ccccc23)NC(=O)[C@H](CC(=O)O)NC(=O)[C@H](CCc2ccncc2)NC(=O)[C@H](CN)NC(=O)CSC[C@@H](C(=O)N[C@@H](C)C(N)=O)NC(=O)[C@H]([C@@H](C)O)NC(=O)[C@H](C(C)C)NC(=O)[C@H](CC2CCCCC2)NC(=O)[C@H](CCN)NC1=O", "note": "[Compound 2104]", "IC50": 18.2}, {"smiles": "Cc1cccc(C[C@@H]2NC(=O)[C@H](CC(=O)O)NC(=O)[C@H](Cc3ccc(OCC(=O)O)cc3)NC(=O)[C@H](Cc3ccsc3)NC(=O)CSC[C@@H](C(=O)N[C@H](C)C(N)=O)NC(=O)[C@H](CO)NC(=O)[C@H](C(C)(C)O)NC(=O)[C@H](CC3CCCCC3)NC(=O)[C@H](CCN)NC(=O)[C@@H](CC(C)C)NC(=O)[C@H](CCCN)NC(=O)[C@H](Cc3ccc(OCC(=O)O)cc3)NC(=O)[C@H](Cc3ccc(-c4ccccc4)cc3)NC(=O)[C@H](Cc3ccc(OCC(=O)O)cc3)NC2=O)c1", "note": "[Compound 2654] ({CH2CO}-[3Thi]Y(Carboxymethyl)D[Phe(3-Me)]Y(Carboxymethyl)[Bip]Y(Carboxymethyl)[Orn][dL][Dab][Cha][Val(3-OH)]SC[dA]-NH2; thioether N-14)", "IC50": 6.4}, {"smiles": "CC(C)C[C@H]1NC(=O)[C@H](CCCN)NC(=O)[C@H](CCC(=O)O)NC(=O)[C@H](Cc2ccc(-c3ccccc3)cc2)NC(=O)[C@H](C(C)C)NC(=O)[C@H](Cc2ccc3ccccc3c2)NC(=O)[C@H](CC(=O)O)NC(=O)[C@H](Cc2ccc(OCC(=O)O)cc2)NC(=O)[C@H](CN)NC(=O)CSC[C@@H](C(=O)N[C@@H](C)C(N)=O)NC(=O)[C@H]([C@@H](C)O)NC(=O)[C@H](C(C)C)NC(=O)[C@H](CC2CCCCC2)NC(=O)[C@H](CCN)NC1=O", "note": "[Compound 2142] ({CH2CO}-[Dap]Y(Carboxymethyl)D[2Nal]V[Bip]E[Orn][dL][Dab][Cha]VTCA-NH2; thioether N-14)", "IC50": 543}, {"smiles": "CCCC[C@@H]1NC(=O)[C@H](CC(N)=O)NC(=O)[C@@H](CC(C)C)NC(=O)[C@H](CN)NC(=O)[C@H](C(C)C)NC(=O)[C@H](Cc2ccc(-c3ccccc3)cc2)NC(=O)[C@H](CC(C)C)NC(=O)[C@H](Cc2c[nH]c3ccccc23)NC(=O)[C@H](CC(=O)O)NC(=O)[C@H](Cc2ccncc2)NC(=O)[C@H](Cc2ccc(OCC(=O)O)cc2)NC(=O)CSC[C@@H](C(=O)NCC(N)=O)NC(=O)[C@H](CO)NC(=O)[C@H](C(C)C)NC1=O", "note": "[Compound 1401] ({CH2CO}-Y(Carboxymethyl)[4Pal]DWL[Bip]V[Dap][dL]N[Nle]VSCG-NH2; thioether N-14)", "IC50": 22}, {"smiles": "CCC(C)[C@@H]1NC(=O)[C@H](Cc2ccc(-c3ccccc3)cc2)NC(=O)[C@H](C(C)C)NC(=O)[C@H](Cc2c[nH]c3ccccc23)NC(=O)[C@H](CC(=O)O)NC(=O)[C@H](Cc2cccnc2)NC(=O)[C@H](Cc2ccncc2)NC(=O)CSC[C@@H](C(=O)N[C@@H](C)C(N)=O)NC(=O)[C@H]([C@@H](C)O)NC(=O)[C@H](C(C)C)NC(=O)[C@H](CC2CCCCC2)NC(=O)[C@H](CCN)NC(=O)[C@@H](CC(C)C)NC(=O)[C@H](CCCN)NC1=O", "note": "(stereo partly drawn) [Compound 2232] ({CH2CO}-[4Pal][3Pal]DWV[Bip][Ile(3ξ)][Orn][dL][Dab][Cha]VTCA-NH2; thioether N-14)", "IC50": 13.6}, {"smiles": "CCCC[C@@H]1NC(=O)[C@H](CCN)NC(=O)[C@@H](CC(C)C)NC(=O)[C@H](CCCN)NC(=O)[C@H](C(C)C)NC(=O)[C@H](Cc2ccc(-c3ccccc3)cc2)NC(=O)[C@H](CC(C)C)NC(=O)[C@H](Cc2c[nH]c3ccccc23)NC(=O)[C@H](CC(=O)O)NC(=O)[C@H](Cc2ccc(OCC(=O)O)cc2)NC(=O)[C@H](Cc2ccncc2)NC(=O)CSC[C@@H](C(=O)NCC(N)=O)NC(=O)[C@H](CO)NC(=O)[C@H](C(C)C)NC1=O", "note": "[Compound 1407] ({CH2CO}-[4Pal]Y(Carboxymethyl)DWL[Bip]V[Orn][dL][Dab][Nle]VSCG-NH2; thioether N-14)", "IC50": 7.9}, {"smiles": "CC[C@H](C)[C@@H]1NC(=O)[C@H](C(C)C)NC(=O)[C@H](CC2CCCCC2)NC(=O)[C@H](CCN)NC(=O)[C@@H](CC(C)C)NC(=O)[C@H](CCCN)NC(=O)[C@H](CCCNC(N)=O)NC(=O)[C@H](Cc2ccc(-c3ccccc3)cc2)NC(=O)[C@H](C(C)C)NC(=O)[C@H](Cc2c[nH]c3ccccc23)NC(=O)[C@H](CC(=O)O)NC(=O)[C@H](Cc2ccc(OCC(=O)O)cc2)NC(=O)[C@H](CN)NC(=O)CSC[C@@H](C(=O)N[C@@H](C)C(N)=O)NC1=O", "note": "[Compound 1320] ({CH2CO}-[Dap]Y(Carboxymethyl)DWV[Bip][Cit][Orn][dL][Dab][Cha]VICA-NH2; thioether N-14)", "IC50": 52.7}, {"smiles": "C#CCC(NC(=O)[C@H](Cc1cnc[nH]1)NC(=O)[C@@H]1CSCC(=O)N[C@@H](Cc2ccncc2)C(=O)N[C@@H](Cc2ccc(OCC(=O)O)cc2)C(=O)N[C@@H](CC(=O)O)C(=O)N[C@@H](Cc2c[nH]c3ccccc23)C(=O)N[C@@H](C(C)C)C(=O)N[C@@H](Cc2ccc(-c3ccccc3)cc2)C(=O)N[C@@H]([C@@H](C)CC)C(=O)N[C@@H](CCCN)C(=O)N[C@H](CC(C)C)C(=O)N[C@@H](CCN)C(=O)N[C@@H](CC(C)C)C(=O)N[C@@H](C(C)C)C(=O)N[C@@H]([C@@H](C)O)C(=O)N1)C(N)=O", "note": "(stereo partly drawn) [Compound 1763] ({CH2CO}-[4Pal]Y(Carboxymethyl)DWV[Bip]I[Orn][dL][Dab]LVTCH[ξPra]-NH2; thioether N-14)", "IC50": 24}, {"smiles": "CC(C)C[C@H]1NC(=O)[C@H](CCCN)NC(=O)[C@H](C(C)C)NC(=O)[C@H](Cc2ccc(-c3ccccc3)cc2)NC(=O)[C@H](C(C)C)NC(=O)[C@H](Cc2c[nH]c3ccccc23)NC(=O)[C@H](CC(=O)O)NC(=O)[C@H](Cc2ccc(OCC(=O)O)cc2)NC(=O)[C@H](C(C)O)NC(=O)CSC[C@@H](C(=O)N[C@@H](CCN)C(N)=O)NC(=O)[C@H](C(C)O)NC(=O)[C@H](C(C)C)NC(=O)[C@H](CC2CCCCC2)NC(=O)[C@H](CCN)NC1=O", "note": "(stereo partly drawn) [Compound 2601] ({CH2CO}-[Thr(3ξ)]Y(Carboxymethyl)DWV[Bip]V[Orn][dL][Dab][Cha]V[Thr(3ξ)]C[Dab]-NH2; thioether N-14)", "IC50": 12.6}, {"smiles": "CC(C)C[C@H]1NC(=O)[C@H](CCCN)NC(=O)[C@H](CCCNC(N)=O)NC(=O)[C@H](Cc2ccc(-c3ccccc3)cc2)NC(=O)[C@H](C(C)(C)C)NC(=O)[C@H](Cc2c[nH]c3ccccc23)NC(=O)[C@H](CC(=O)O)NC(=O)[C@H](Cc2ccc(OCC(=O)O)cc2)NC(=O)[C@H](CN)NC(=O)CSC[C@@H](C(=O)N[C@@H](C)C(N)=O)NC(=O)[C@H]([C@@H](C)O)NC(=O)[C@H](C(C)C)NC(=O)[C@H](CC2CCCCC2)NC(=O)[C@H](CCN)NC1=O", "note": "[Compound 1362] ({CH2CO}-[Dap]Y(Carboxymethyl)DW[Tle][Bip][Cit][Orn][dL][Dab][Cha]VTCA-NH2; thioether N-14)", "IC50": 52.9}, {"smiles": "Cc1cccc(C[C@@H]2NC(=O)[C@H](CC(=O)O)NC(=O)[C@H](Cc3ccc(C(=O)O)cc3)NC(=O)[C@H](CN)NC(=O)CSC[C@@H](C(=O)N[C@@H](CCN)C(N)=O)NC(=O)[C@@H](CN)NC(=O)[C@H](C(C)C)NC(=O)[C@H](CC3CCCCC3)NC(=O)[C@H](CCN)NC(=O)[C@@H](CC(C)C)NC(=O)[C@H](CCCN)NC(=O)[C@H](C(C)C)NC(=O)[C@H](Cc3ccc(-c4ccccc4)cc3)NC(=O)[C@H](C(C)C)NC2=O)c1", "note": "[Compound 2030] ({CH2CO}-[Dap][Phe(4-COOH)]D[Phe(3-Me)]V[Bip]V[Orn][dL][Dab][Cha]V[dDap]C[Dab]-NH2; thioether N-14)", "IC50": 14.7}, {"smiles": "CC[C@H](C)[C@@H]1NC(=O)[C@H](Cc2ccc(-c3ccccc3)cc2)NC(=O)[C@H](C(C)C)NC(=O)[C@H](Cc2c[nH]c3ccccc23)NC(=O)[C@H](CC(=O)O)NC(=O)[C@H](Cc2ccc(O)cc2)NC(=O)[C@H](Cc2ccccc2)NC(=O)CSC[C@@H](C(=O)N[C@@H](C)C(N)=O)NC(=O)[C@H]([C@@H](C)O)NC(=O)[C@H](C(C)C)NC(=O)[C@H](CC(C)C)NC(=O)[C@H](CCCNC(=N)N)NC(=O)[C@@H](CC(C)C)NC(=O)[C@H](CCCN)NC1=O", "note": "[Compound 1144] ({CH2CO}-FYDWV[Bip]I[Orn][dL]RLVTCA-NH2; thioether N-14)", "IC50": 19.2}, {"smiles": "CC(C)C[C@H]1NC(=O)[C@H](CCCN)NC(=O)[C@H](CCCNC(N)=O)NC(=O)[C@H](Cc2ccc(-c3ccccc3)cc2)NC(=O)[C@H](C(C)C)NC(=O)[C@H](Cc2c[nH]c3ccccc23)NC(=O)[C@H](CC(=O)O)NC(=O)[C@H](Cc2ccc(CN)cc2)NC(=O)[C@H](CN)NC(=O)CSC[C@@H](C(=O)N[C@@H](C)C(N)=O)NC(=O)[C@H]([C@@H](C)O)NC(=O)[C@H](C(C)C)NC(=O)[C@H](CC2CCCCC2)NC(=O)[C@H](CCN)NC1=O", "note": "[Compound 2098] ({CH2CO}-[Dap][Phe(4-CH2NH2)]DWV[Bip][Cit][Orn][dL][Dab][Cha]VTCA-NH2; thioether N-14)", "IC50": 15.7}, {"smiles": "CC[C@H](C)[C@@H]1NC(=O)[C@H](Cc2ccc(-c3ccccc3)cc2)NC(=O)[C@H](C(C)C)NC(=O)[C@H](Cc2c[nH]c3ccccc23)NC(=O)[C@H](CC(=O)O)NC(=O)[C@H](Cc2ccc(O)cc2)NC(=O)[C@H](CN)NC(=O)CSC[C@@H](C(=O)N[C@@H](C)C(N)=O)NC(=O)[C@H]([C@@H](C)O)NC(=O)[C@H](C(C)C)NC(=O)[C@H](CC2CCCCC2)NC(=O)[C@H](CCCNC(=N)N)NC(=O)[C@@H](CC(C)C)NC(=O)[C@H](CCCN)NC1=O", "note": "[Compound 1145] ({CH2CO}-[Dap]YDWV[Bip]I[Orn][dL]R[Cha]VTCA-NH2; thioether N-14)", "IC50": 8.7}]}]}
